pIC50: −log10 of the molar value.

T1 sequence (O00329 with tags, fused parts or gaps limits assumed): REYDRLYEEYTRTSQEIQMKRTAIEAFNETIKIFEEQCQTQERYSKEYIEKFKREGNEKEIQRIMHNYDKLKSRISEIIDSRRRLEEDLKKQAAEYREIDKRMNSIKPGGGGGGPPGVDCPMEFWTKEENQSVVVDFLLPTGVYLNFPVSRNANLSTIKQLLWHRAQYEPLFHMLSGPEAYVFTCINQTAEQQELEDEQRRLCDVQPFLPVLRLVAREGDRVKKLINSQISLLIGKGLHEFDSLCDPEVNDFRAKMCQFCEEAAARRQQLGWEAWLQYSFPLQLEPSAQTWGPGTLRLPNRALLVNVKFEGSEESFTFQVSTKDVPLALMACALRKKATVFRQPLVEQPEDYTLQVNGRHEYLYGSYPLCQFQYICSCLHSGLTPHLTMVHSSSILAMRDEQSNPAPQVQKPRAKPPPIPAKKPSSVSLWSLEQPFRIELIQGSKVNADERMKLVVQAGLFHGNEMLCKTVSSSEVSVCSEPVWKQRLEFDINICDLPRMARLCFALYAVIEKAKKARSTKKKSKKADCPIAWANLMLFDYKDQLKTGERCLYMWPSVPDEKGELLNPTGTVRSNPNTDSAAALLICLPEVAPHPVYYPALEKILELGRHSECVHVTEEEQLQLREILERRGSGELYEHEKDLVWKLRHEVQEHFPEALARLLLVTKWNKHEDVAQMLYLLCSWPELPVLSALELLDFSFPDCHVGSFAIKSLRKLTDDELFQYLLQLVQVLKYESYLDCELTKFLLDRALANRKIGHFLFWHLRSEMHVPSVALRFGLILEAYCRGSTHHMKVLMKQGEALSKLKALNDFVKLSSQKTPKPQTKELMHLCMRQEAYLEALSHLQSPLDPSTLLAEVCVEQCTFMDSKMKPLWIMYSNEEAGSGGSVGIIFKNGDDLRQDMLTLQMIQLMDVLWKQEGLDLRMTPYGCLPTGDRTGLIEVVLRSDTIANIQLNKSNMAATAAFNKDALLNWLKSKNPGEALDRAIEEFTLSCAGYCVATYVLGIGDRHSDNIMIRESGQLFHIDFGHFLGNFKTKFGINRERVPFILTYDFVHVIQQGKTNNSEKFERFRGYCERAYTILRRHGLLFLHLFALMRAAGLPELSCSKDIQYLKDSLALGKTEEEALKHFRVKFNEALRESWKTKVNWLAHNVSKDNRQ

This assay concerns the target T1, PI3K delta (Homo sapiens, UniProt O00329).
T1 construct: for the full-length p110-d subunit are generated and fused by overlapping PCR; His tag (C); made in house; host or cells: baculovirus BV1060; Tn5 (Trichoplusia ni) or TiniPro insect cells
Kind of assay: PI3K delta kinase assay (Kinase-Glo luminescence). As to conditions: read-out: EPK_PI3Kdelta/IC50. Type of assay: biochemical. The procedure, abridged:
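Kinase-Glo ATP-depletion luminescence using 10 nM p85(iSH2)-linker-p110δ full-length His-tag construct from insect cells, with 1 μM ATP and 10 μg/mL phosphatidylinositol in 10 mM Tris pH 7.5, 3 mM MgCl2, 50 mM NaCl, 0.05% CHAPS, 1 mM DTT. 60 min room temperature; IC50 from 4-parameter logistic fit over 8 concentrations.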
Turning to `COc1ncc(-c2ccc3ncc4c(c3c2)n(-c2ccc(N3CC[C@H](O)C3)nc2C)c(=O)n4C)c(OC)n1` [Example 32.3, 8-(2,4-Dimethoxy-pyrimidin-5-yl)-1-[6-((S)-3-hydroxy-pyrrolidin-1-yl)-2-methyl-pyridin-3-yl]-3-methyl-1,3-dihydro-imidazo[4,5-c]quinolin-2-one], the pIC50 was 7.96.

Regarding `CNc1ncc(-c2ccc3ncc4c(c3c2)n(-c2ccc(N3CC[C@H](O)C3)nc2C)c(=O)n4C)cc1C(F)(F)F` [Example 32.5, 1-[6-((S)-3-Hydroxy-pyrrolidin-1-yl)-2-methyl-pyridin-3-yl]-3-methyl-8-(6-methylamino-5-trifluoromethyl-pyridin-3-yl)-1,3-dihydro-imidazo[4,5-c]quinolin-2-one], the pIC50 is 8.40.

Regarding `Cc1nc(N2CC[C@H](O)C2)ccc1-n1c(=O)n(C)c2cnc3ccc(-c4cncc(OC(C)C)c4)cc3c21` [Example 32.8, 1-[6-((S)-3-Hydroxy-pyrrolidin-1-yl)-2-methyl-pyridin-3-yl]-8-(5-isopropoxy-pyridin-3-yl)-3-methyl-1,3-dihydro-imidazo[4,5-c]quinolin-2-one], the pIC50 was 7.41.

As to `Cc1nc(C(F)(F)F)ccc1-n1c(=O)n(C)c2cnc3ccc(-c4cncc(C(C)(C)O)c4)cc3c21` [Example 33.1, 8-[5-(1-Hydroxy-1-methyl-ethyl)-pyridin-3-yl]-3-methyl-1-(2-methyl-6-trifluoromethyl-pyridin-3-yl)-1,3-dihydro-imidazo[4,5-c]quinolin-2-one], the pIC50 was 8.22.

Take `CCNc1ncc(-c2ccc3ncc4c(c3c2)n(-c2ccc(N3CC[C@@H](O)C3)nc2C)c(=O)n4C)cc1C(F)(F)F` [Example 34.2, 8-(6-Ethylamino-5-trifluoromethyl-pyridin-3-yl)-1-[6-((R)-3-hydroxy-pyrrolidin-1-yl)-2-methyl-pyridin-3-yl]-3-methyl-1,3-dihydro-imidazo[4,5-c]quinolin-2-one]: the pIC50 was 7.92.

Consider `CCNc1ncc(-c2ccc3ncc4c(c3c2)n(-c2ccc(N3CC[C@@H](O)C3)nc2C)c(=O)n4C)cc1COCC` [Example 34.4, 8-(5-Ethoxymethyl-6-ethylamino-pyridin-3-yl)-1-[6-((R)-3-hydroxy-pyrrolidin-1-yl)-2-methyl-pyridin-3-yl]-3-methyl-1,3-dihydro-imidazo[4,5-c]quinolin-2-one], for which the pIC50 is 7.59.

The values above are taken from patent US20100311714A1, “1H-IMIDAZO[4,5-c]QUINOLINONE COMPOUNDS” (priority 2009, published 2010).
